Laboratory results published in paper PMC7316778 (Nature Communications, 2020).
“And” between values parts separate entries of the source, which are not always exact repeats. Equal entries are not always repeated. Where two headings read alike, the source gives them in different places.

Experiments:
[1] = molecular target: CDK3/cyclin E1 (Homo sapiens, UniProt Q00526); experiment: SelectScreen kinase assay; conditions: for Inhibition at 1 µM (%): CDK3/cyclin E1, LanthaScreen Binding
Experimental: (§1) Selectivity profiling assays were performed by the Invitrogen SelectScreen™ Services. […] The concentration of ATP was selected to be equal to the KM, unless indicated otherwise.

[2] = molecular target: MAP3K10 (MLK2) (Homo sapiens, UniProt Q02779); experiment: SelectScreen kinase assay
Experimental: as §1

[3] = molecular target: RPS6KA1 (RSK1) (Homo sapiens, UniProt Q15418); experiment: SelectScreen kinase assay
Experimental: as §1

[4] = molecular target: T1, CDKL5 (Homo sapiens, UniProt O76039); experiment: SelectScreen kinase assay
T1 sequence (O76039 1-960): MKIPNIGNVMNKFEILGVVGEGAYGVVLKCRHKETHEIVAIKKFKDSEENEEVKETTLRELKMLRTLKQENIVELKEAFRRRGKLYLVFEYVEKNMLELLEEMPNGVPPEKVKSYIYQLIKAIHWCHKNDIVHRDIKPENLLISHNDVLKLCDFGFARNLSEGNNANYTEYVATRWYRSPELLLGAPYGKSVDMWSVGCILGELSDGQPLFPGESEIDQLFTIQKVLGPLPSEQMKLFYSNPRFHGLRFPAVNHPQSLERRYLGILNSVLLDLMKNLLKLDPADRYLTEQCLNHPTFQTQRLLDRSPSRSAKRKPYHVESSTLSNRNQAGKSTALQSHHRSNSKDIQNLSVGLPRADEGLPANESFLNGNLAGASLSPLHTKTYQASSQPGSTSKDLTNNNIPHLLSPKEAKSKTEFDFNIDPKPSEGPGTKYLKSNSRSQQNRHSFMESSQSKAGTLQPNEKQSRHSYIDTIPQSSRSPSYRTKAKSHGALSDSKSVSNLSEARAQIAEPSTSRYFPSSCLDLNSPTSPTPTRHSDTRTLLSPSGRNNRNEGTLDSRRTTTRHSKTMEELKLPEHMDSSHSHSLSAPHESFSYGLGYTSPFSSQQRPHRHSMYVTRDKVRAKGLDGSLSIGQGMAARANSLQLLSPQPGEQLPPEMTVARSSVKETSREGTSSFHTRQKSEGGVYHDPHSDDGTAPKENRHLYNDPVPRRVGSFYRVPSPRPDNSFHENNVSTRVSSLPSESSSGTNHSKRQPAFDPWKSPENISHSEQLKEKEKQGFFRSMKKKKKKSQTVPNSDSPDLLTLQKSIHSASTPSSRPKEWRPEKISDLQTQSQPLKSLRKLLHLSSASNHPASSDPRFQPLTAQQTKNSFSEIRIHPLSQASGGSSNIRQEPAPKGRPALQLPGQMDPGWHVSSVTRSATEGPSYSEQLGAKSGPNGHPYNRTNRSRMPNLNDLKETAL
Experimental: as §1

[5] = molecular target: PAK3 (Homo sapiens, UniProt O75914); experiment: SelectScreen kinase assay
Experimental: as §1

[6] = system: FES^S700C HL-60 neutrophils; experiment: Neutrophil oxidative burst assay (NBT); type: cell-based, human
[7] = molecular target: T2, MLCK (MLCK2) (Homo sapiens, UniProt Q32MK0); experiment: SelectScreen kinase assay
T2 sequence (Q32MK0 1-819): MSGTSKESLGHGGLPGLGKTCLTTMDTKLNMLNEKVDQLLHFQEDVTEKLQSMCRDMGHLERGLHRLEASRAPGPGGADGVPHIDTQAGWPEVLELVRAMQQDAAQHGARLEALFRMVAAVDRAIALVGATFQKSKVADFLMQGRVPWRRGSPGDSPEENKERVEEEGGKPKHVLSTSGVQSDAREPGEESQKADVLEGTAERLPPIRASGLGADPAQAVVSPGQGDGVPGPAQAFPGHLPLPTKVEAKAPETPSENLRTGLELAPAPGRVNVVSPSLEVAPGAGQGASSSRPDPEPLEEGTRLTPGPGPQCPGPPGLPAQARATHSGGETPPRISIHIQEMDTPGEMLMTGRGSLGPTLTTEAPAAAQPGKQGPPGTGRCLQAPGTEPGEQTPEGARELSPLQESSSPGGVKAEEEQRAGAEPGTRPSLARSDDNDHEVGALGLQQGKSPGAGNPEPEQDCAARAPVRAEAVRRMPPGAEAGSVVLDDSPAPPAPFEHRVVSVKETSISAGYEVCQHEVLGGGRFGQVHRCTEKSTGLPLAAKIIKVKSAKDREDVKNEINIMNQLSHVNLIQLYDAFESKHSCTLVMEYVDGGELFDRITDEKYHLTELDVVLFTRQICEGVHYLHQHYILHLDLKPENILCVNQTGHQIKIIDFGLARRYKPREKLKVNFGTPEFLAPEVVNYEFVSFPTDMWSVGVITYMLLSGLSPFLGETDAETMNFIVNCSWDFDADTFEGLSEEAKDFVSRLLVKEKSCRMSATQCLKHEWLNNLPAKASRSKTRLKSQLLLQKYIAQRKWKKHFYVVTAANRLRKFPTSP
Experimental: as §1

[8] = molecular target: DDR2 (Homo sapiens, UniProt Q16832); experiment: SelectScreen kinase assay
Experimental: as §1

[9] = molecular target: T3, AURKC (Aurora C) (Homo sapiens, UniProt Q9UQB9); experiment: SelectScreen kinase assay
T3 sequence (Q9UQB9 1-309): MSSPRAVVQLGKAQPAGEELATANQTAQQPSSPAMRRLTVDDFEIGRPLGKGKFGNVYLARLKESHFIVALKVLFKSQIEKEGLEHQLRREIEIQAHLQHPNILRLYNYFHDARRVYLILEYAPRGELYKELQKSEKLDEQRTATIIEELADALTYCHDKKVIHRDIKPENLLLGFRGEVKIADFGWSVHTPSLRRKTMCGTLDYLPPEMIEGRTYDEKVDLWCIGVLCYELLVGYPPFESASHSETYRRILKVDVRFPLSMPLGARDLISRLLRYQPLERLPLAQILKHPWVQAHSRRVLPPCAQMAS
Experimental: as §1

[10] = 1 h, 1 μM WEL028, 1 h preincubation

Sequence of MAP3K10 (MLK2) (Q02779 whole entry): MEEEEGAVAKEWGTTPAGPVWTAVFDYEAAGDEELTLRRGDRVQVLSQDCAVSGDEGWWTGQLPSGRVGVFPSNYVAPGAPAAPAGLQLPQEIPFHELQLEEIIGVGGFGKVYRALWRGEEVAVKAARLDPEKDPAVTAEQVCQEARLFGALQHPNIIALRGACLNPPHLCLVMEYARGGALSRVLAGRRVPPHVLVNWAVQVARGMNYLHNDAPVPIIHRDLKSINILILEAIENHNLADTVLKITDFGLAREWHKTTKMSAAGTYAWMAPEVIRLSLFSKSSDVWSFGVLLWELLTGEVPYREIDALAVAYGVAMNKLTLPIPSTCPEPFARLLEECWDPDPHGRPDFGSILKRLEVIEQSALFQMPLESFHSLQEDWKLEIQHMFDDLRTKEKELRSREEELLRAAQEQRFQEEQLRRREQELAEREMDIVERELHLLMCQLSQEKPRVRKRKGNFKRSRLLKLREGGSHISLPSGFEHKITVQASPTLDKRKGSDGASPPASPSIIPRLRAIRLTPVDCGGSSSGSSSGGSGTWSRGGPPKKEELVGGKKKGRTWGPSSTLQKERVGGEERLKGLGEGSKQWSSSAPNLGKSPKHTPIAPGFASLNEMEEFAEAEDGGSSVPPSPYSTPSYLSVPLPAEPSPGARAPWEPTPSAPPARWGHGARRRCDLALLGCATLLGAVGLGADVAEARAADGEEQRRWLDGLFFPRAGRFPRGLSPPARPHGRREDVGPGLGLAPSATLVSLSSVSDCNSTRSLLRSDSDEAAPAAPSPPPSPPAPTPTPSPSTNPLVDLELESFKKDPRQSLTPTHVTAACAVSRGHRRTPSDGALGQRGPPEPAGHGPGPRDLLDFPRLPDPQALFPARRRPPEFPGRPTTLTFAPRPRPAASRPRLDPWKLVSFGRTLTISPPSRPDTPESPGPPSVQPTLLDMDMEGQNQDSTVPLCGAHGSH
Sequence of CDK3/cyclin E1 (Q00526 whole entry): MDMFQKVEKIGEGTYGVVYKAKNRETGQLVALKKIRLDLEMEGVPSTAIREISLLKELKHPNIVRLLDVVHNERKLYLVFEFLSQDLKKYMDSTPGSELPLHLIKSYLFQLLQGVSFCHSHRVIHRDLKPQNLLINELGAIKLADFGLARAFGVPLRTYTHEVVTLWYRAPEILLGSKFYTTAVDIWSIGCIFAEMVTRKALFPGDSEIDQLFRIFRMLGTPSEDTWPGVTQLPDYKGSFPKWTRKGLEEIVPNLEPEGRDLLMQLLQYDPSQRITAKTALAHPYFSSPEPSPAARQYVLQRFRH
Sequence of CDK3/cyclin E1 (P24864 whole entry partner): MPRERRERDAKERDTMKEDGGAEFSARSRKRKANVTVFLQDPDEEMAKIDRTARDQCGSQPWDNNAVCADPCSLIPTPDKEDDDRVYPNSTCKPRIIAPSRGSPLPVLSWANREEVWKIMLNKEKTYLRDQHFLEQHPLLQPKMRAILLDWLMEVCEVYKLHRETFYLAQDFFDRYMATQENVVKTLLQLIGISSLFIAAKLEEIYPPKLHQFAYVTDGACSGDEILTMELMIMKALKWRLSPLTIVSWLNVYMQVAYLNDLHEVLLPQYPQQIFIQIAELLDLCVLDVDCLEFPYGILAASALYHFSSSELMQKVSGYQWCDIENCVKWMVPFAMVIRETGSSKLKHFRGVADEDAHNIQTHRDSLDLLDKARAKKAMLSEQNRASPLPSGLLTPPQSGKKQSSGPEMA
Sequence of PAK3 (O75914 whole entry): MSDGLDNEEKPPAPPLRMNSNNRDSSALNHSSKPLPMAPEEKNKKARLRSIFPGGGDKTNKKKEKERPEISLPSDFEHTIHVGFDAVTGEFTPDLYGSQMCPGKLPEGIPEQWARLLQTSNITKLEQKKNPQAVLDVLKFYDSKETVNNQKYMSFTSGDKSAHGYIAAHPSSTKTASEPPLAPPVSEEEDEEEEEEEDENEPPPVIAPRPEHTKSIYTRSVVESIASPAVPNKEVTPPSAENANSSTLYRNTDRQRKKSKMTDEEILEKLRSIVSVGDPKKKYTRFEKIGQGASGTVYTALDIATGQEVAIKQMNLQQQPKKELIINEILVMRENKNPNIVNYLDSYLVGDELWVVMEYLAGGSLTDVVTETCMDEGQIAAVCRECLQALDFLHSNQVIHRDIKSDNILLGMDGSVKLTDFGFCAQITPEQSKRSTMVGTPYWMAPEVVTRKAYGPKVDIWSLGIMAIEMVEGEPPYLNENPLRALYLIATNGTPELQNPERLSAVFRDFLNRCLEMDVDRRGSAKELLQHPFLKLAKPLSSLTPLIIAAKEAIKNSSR
Sequence of RPS6KA1 (RSK1) (Q15418 whole entry): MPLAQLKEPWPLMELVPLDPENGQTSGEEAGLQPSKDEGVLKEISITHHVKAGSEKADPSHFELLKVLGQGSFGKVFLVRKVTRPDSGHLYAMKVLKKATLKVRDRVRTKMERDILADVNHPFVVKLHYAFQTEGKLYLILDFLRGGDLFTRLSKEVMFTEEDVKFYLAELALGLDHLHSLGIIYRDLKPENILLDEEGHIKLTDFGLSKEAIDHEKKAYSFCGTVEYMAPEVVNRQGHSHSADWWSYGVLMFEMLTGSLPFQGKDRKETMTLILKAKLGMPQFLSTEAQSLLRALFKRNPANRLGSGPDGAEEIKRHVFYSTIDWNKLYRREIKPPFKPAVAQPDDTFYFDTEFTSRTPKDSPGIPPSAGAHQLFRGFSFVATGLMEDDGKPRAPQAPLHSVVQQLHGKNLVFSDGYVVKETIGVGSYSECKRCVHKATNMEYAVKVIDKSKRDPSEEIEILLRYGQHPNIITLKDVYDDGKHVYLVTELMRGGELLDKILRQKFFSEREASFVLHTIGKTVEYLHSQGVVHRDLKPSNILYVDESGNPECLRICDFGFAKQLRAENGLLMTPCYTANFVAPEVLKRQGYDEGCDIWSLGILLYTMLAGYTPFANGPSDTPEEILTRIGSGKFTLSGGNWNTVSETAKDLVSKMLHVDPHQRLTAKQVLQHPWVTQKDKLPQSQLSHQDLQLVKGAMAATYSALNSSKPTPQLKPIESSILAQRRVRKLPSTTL
Sequence of DDR2 (Q16832 22-855): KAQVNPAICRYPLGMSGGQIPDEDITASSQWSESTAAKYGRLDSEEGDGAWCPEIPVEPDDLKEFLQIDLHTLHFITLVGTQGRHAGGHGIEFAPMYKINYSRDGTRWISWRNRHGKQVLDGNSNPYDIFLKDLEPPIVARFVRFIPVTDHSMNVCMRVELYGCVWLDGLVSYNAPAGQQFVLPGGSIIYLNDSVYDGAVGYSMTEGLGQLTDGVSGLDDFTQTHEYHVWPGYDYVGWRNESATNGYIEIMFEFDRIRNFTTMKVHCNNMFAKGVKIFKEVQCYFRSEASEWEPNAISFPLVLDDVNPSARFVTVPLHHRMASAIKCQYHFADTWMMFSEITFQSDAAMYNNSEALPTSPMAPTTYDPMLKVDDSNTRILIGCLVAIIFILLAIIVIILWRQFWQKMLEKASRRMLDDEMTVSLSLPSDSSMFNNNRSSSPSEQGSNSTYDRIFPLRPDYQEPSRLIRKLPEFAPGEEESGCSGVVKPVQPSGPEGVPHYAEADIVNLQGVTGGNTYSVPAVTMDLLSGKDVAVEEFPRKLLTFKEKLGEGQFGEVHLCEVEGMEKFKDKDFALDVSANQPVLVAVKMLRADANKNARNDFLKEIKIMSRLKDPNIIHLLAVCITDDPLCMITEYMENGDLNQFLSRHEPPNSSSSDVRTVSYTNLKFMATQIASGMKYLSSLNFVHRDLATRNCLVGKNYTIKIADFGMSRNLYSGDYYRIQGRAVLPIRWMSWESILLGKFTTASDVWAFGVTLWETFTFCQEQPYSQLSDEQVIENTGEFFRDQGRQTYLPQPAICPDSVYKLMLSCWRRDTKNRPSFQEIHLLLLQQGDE

C#CCOc1ccc(Nc2ncc(Cl)c(Nc3ccccc3NC(=O)C=C)n2)c(OC)c1 [Compound 6]
Inhibition (%) ([1]; 1 μM WEL028, 1 h preincubation): 1%
Inhibition at 1 µM (%) [1]: -3%
Inhibition at 1 µM (%) ([1]; listed as WEL028, 1 µM): 5%
inhibition at 1 µM [2, 10]: 4%
Inhibition at 1 µM (%) ([2]; MAP3K10 (MLK2), 1 µM, LanthaScreen Binding, listed as WEL028, 1 µM): 5%
inhibition at 1 µM ([2]; read-out: Inhibition at 1 µM (%), MAP3K10 (MLK2), 1 µM, LanthaScreen Binding): 4%
Inhibition at 1 µM (%) ([3]; 1 µM, ZLYTE, ATP Km app, listed as WEL028, 1 µM): 0% and 10%
inhibition at 1 µM [3, 10]: 5%
inhibition at 1 µM [4, 10]: 8%
Inhibition at 1 µM (%) ([4]; CDKL5, 1 µM, ZLYTE, ATP Km app, listed as WEL028, 1 µM): 9%
inhibition at 1 µM ([4]; read-out: Inhibition at 1 µM (%), CDKL5, 1 µM, ZLYTE, ATP Km app): 7%
inhibition at 1 µM [5, 10]: 7%
Inhibition at 1 µM (%) ([5]; PAK3, 1 µM, ZLYTE, ATP Km app, listed as WEL028, 1 µM): 6%
inhibition at 1 µM ([5]; read-out: Inhibition at 1 µM (%), PAK3, 1 µM, ZLYTE, ATP Km app): 7%
Formazan-positive cells (%) ([6]; 100 nM, Supplementary Figure 12f, individual replicates, listed as WEL028): 79.976% and 78.7671% and 73.0614%
Percentage of formazan-positive cells ([6]; WEL028 prior to PMA stimulation): did not affect
inhibition at 1 µM [7, 10]: 9%
Inhibition at 1 µM (%) ([7]; MLCK (MLCK2), 1 µM, LanthaScreen Binding, listed as WEL028, 1 µM): 8%
inhibition at 1 µM ([7]; read-out: Inhibition at 1 µM (%), MLCK (MLCK2), 1 µM, LanthaScreen Binding): 9%
inhibition at 1 µM [8, 10]: 3%
inhibition at 1 µM ([8]; read-out: Inhibition at 1 µM (%), DDR2, 1 µM, LanthaScreen Binding): 2%
inhibition at 1 µM [9, 10]: 37%
Inhibition at 1 µM (%) ([9]; AURKC (Aurora C), 1 µM, ZLYTE, ATP Km app, listed as WEL028, 1 µM): 41%
inhibition at 1 µM ([9]; read-out: Inhibition at 1 µM (%), AURKC (Aurora C), 1 µM, ZLYTE, ATP Km app): 33%
